Results reported in patent US9884043B2, “RORgammaT inhibitors” (Merck Sharp & Dohme Corp., priority 2011, dated 2018).

Molecular target: T1, 6His(GST)RORgamma-LBD (Homo sapiens, UniProt P51449)
T1 construct: the applied RORgamma-LBD contains a 6-His and GST tag; GST (N); made in house; host or cells: baculovirus-infected Sf-21 insect cells
T1 sequence (P51449 269-508 limits assumed): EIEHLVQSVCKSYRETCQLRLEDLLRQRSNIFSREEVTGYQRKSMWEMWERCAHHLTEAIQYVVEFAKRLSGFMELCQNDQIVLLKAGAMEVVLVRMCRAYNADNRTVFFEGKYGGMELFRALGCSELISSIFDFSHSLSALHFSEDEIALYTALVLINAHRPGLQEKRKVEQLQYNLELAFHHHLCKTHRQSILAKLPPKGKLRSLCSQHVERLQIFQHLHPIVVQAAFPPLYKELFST
Assay: TR-FRET assay (Protocol A), RORgamma-LBD / SRC1_2 co-activator peptide interaction
Format: biochemical
Conditions: SRC1_2 peptide 0.1 μM, RORgamma-LBD 10 nM, overnight incubation at 4° C.
Source text: Activation of RORgammaT activity can be measured using e.g. biochemical TR-FRET assay. In such an assay, interaction of cofactor-derived peptides with human RORgammaT-Ligand Binding Domain (LBD) can be measured.
To identify novel antagonists of RORgammaT, an assay was developed which employs the interaction of RORgammaT with its co-activator peptide SRC1_2. […] The assay was run following three slightly different protocols, i.e. Protocol A, Protocol B, and Protocol C, which are described below.
TR-FRET Assay (Protocol A)
The 6His(GST)RORgamma-LBD was expressed and purified from baculovirus infected Sf-21 insect cells (Bac-to-BAC, Invitrogen) and purified using glutathione sepharose chromatography (GE healthcare). Biotin and His function as anchoring points for streptavidin-allophycocyanin (Strep-APC, Perkin Elmer, C130-100) and anti-His-Europium Cryptate (Perkin Elmer, AD0111), respectively. Since energy transfer between the streptavidin and His-coupled labels APC and europium cryptate can only take place when these labels are in close proximity, measurement of energy transfer in a mixture of biotinylated peptide, His-GR-LBD, streptavidin-APC and anti-His-Europium Cryptate will be indicative for RORy-LBD/peptide binding. […] Changes in peptide binding caused by dose-curves of compounds added to the reaction mixture (DMSO concentration 0.1%), can likewise be monitored.

EC50 | pEC50 | Structure (SMILES)
617 nM | – | O=S(=O)(c1sc(Cl)cc1Br)n1nc(-c2ccc(-c3nnn[nH]3)cc2)c2ccccc21 [Example 21C, 3-(4-(1H-tetrazol-5-yl)phenyl)-1-(3-bromo-5-chlorothiophen-2-ylsulfonyl)-1H-indazole]
70.8 nM | – | O=C(O)c1ccc(-c2nn(C(=O)c3c(Cl)cc(Cl)cc3Cl)c3ccccc23)cc1 [Example 11H, 4-(1-(2,4,6-trichlorobenzoyl)-1H-indazol-3-yl)benzoic acid]
52.5 nM | – | Cc1c(Cl)cccc1S(=O)(=O)n1nc(-c2ccc(C(=O)O)cc2)c2ccccc21 [Example 13D, 4-(1-(3-chloro-2-methylphenylsulfonyl)-1H-indazol-3-yl)benzoic acid]
18.6 nM | – | O=C(O)c1ccc(-c2nn(C(=O)c3c(Cl)cccc3Cl)c3c(F)cccc23)cc1 [Example 3, 4-(1-(2,6-dichlorobenzoyl)-7-fluoro-1H-indazol-3-yl)benzoic acid]
26.3 nM | – | O=C(O)c1ccc(-c2nn(C(=O)c3ccccc3Cl)c3ccccc23)cc1 [Example 11L, 4-(1-(2-chlorobenzoyl)-1H-indazol-3-yl)benzoic acid]
575 nM | – | O=S(=O)(c1ccc(F)cc1Br)n1nc(-c2ccc(-c3nnn[nH]3)cc2)c2ccccc21 [Example 21B, 3-(4-(1H-tetrazol-5-yl)phenyl)-1-(2-bromo-4-fluorophenylsulfonyl)-1H-indazole]
26.9 nM | – | O=C(O)c1ccc(-c2nn(C(=O)c3c(Cl)cccc3Br)c3ccccc23)cc1 [Example 11E, 4-(1-(2-bromo-6-chlorobenzoyl)-1H-indazol-3-yl)benzoic acid]
155 nM | – | O=C(O)c1ccc(-c2nn(S(=O)(=O)c3cccc4cccnc34)c3ccccc23)cc1 [Example 13A, 4-(1-(quinolin-8-ylsulfonyl)-1H-indazol-3-yl)benzoic acid]
25.7 nM | – | Cc1cccc([N+](=O)[O-])c1C(=O)n1nc(-c2ccc(C(=O)O)cc2)c2ccccc21 [Example 11N, 4-(1-(2-methyl-6-nitrobenzoyl)-1H-indazol-3-yl)benzoic acid]
4470 nM | – | O=C(O)c1ccc(-c2nn(S(=O)(=O)c3cccc4nonc34)c3ccccc23)cc1 [Example 15D, 4-(1-(benzo[c][1,2,5]oxadiazol-4-ylsulfonyl)-1H-indazol-3-yl)benzoic acid]
21.4 nM | – | O=C(O)c1ccc(-c2nn(C(=O)c3cccc(Cl)c3Cl)c3ccccc23)cc1 [Example 11K, 4-(1-(2,3-dichlorobenzoyl)-1H-indazol-3-yl)benzoic acid]
3310 nM | – | Cc1cc(C)cc(S(=O)(=O)n2nc(-c3ccc(C(=O)O)c(C(F)(F)F)c3)c3ccccc32)c1 [Example 18, 4-(1-(3,5-dimethylphenylsulfonyl)-1H-indazol-3-yl)-2-(trifluoromethyl)benzoic acid]
10.7 nM | – | O=C(O)c1ccc(-c2nn(C(=O)c3c(Cl)cccc3Cl)c3ccccc23)cc1 [Example 1, 4-(1-(2,6-dichlorobenzoyl)-1H-indazol-3-yl)benzoic acid]
741 nM | – | Cc1noc(C)c1S(=O)(=O)n1nc(-c2ccc(-c3nnn[nH]3)cc2)c2ccccc21 [Example 21D, 4-(3-(4-(1H-tetrazol-5-yl)phenyl)-1H-indazol-1-ylsulfonyl)-3,5-dimethylisoxazole]
4900 nM | – | O=C(O)c1ccc(-c2nn(C(=O)c3c(Cl)cccc3Cl)c3ccncc23)cc1 [Example 8, 4-(1-(2,6-dichlorobenzoyl)-1H-pyrazolo[4,3-c]pyridin-3-yl)benzoic acid]
72.4 nM | – | Cc1cccc(C)c1C(=O)n1nc(-c2ccc(C(=O)O)cc2)c2ccccc21 [Example 11I, 4-(1-(2,6-dimethylbenzoyl)-1H-indazol-3-yl)benzoic acid]
174 nM | – | O=C(O)c1ccc(-c2nn(C(=O)c3c(Cl)cccc3Cl)c3cc(F)ccc23)cc1 [Example 5, 4-(1-(2,6-dichlorobenzoyl)-6-fluoro-1H-indazol-3-yl)benzoic acid]
339 nM | – | O=C(O)c1ccc(-c2nn(C(=O)c3c(Cl)cncc3Cl)c3ccccc23)cc1 [Example 11A, 4-(1-(3,5-dichloroisonicotinoyl)-1H-indazol-3-yl)benzoic acid]
– | 7.17 | O=C(O)c1ccc(-c2nn(S(=O)(=O)c3ccccc3C(F)(F)F)c3ccccc23)cc1 [Example 12, 4-(1-(2-(trifluoromethyl)phenylsulfonyl)-1H-indazol-3-yl)benzoic acid]
9330 nM | – | O=S(=O)(c1ccccc1C(F)(F)F)n1nc(-c2ccc(C(O)(C(F)(F)F)C(F)(F)F)cc2)c2ccccc21 [Example 9, 1,1,1,3,3,3-hexafluoro-2-(4-(1-(2-(trifluoromethyl)phenylsulfonyl)-1H-indazol-3-yl)phenyl)propan-2-ol]
13.5 nM | – | O=C(O)c1ccc(-c2nn(C(=O)c3c(Cl)cccc3Cl)c3cccnc23)cc1 [Example 6A, 4-(1-(2,6-dichlorobenzoyl)-1H-pyrazolo[4,3-b]pyridin-3-yl)benzoic acid]
224 nM | – | O=C(O)c1ccc(-c2nn(C(=O)c3ccccc3C(F)(F)F)c3cccnc23)cc1 [Example 6B, 4-(1-(2-(trifluoromethyl)benzoyl)-1H-pyrazolo[4,3-b]pyridin-3-yl)benzoic acid]
8.32 nM | – | O=C(O)c1ccc(-c2nn(C(=O)c3c(Cl)cccc3Cl)c3cccc(F)c23)cc1 [Example 4, 4-(1-(2,6-dichlorobenzoyl)-4-fluoro-1H-indazol-3-yl)benzoic acid]
525 nM | – | O=C(O)c1ccc(-c2nn(C(=O)C3CCCCC3)c3ccccc23)cc1 [Example 11D, 4-(1-(cyclohexanecarbonyl)-1H-indazol-3-yl)benzoic acid]
513 nM | – | Cc1ccc(C#N)c(S(=O)(=O)n2nc(-c3ccc(C(=O)O)cc3)c3ccccc32)c1 [Example 15E, 4-(1-(2-cyano-5-methylphenylsulfonyl)-1H-indazol-3-yl)benzoic acid]
513 nM | – | COC(=O)c1ccccc1C(=O)n1nc(-c2ccc(C(=O)O)cc2)c2ccccc21 [Example 11C, 4-(1-(2-(methoxycarbonyl)benzoyl)-1H-indazol-3-yl)benzoic acid]
39.8 nM | – | O=C(O)c1ccc(-c2nn(C(=O)c3c(F)cccc3C(F)(F)F)c3ccccc23)cc1 [Example 11F, 4-(1-(2-fluoro-6-(trifluoromethyl)benzoyl)-1H-indazol-3-yl)benzoic acid]
75.9 nM | – | O=C(O)c1ccc(-c2nn(S(=O)(=O)c3cc(Cl)ccc3Cl)c3ccccc23)cc1 [Example 13C, 4-(1-(2,5-dichlorophenylsulfonyl)-1H-indazol-3-yl)benzoic acid]
